Measured values reported in US12570988B2, “Aptamers that bind thiamine analogs and derivatives” (MeiraGTx Gene Regulation Limited, priority 2020, dated 2026).

What was measured:
riboswitch 15D10 [1] = experiment: Luciferase reporter with 15D10 riboswitch (Luci-15D10) in AML12 cells; type: cell-based, mouse; conditions: for relative potency in inducing luciferase expression: AML 12 cells, compared with fursultiamine or within groups; for fold induction at 50 µM: Mus musculus, AML12, 24 h, read-out: Fold increase in riboswitch 15D10-regulated luciferase expression, AML; for fold induction at 50 µM / Fold increase in riboswitch 15D10-regulated luciferase expression, AML: AML12 cells, Table 2, 50 μM
riboswitch 15D10 [2] = experiment: Luciferase reporter with 15D10 riboswitch (Luci-15D10) in HEK 293 cells; type: cell-based, human; conditions: HEK 293 cells; for effect on luciferase expression from Luci-15D10: FIG. 9A, 9C; for fold induction at 50 µM: Homo sapiens, HEK293, 24 h, read-out: Fold increase in riboswitch 15D10-regulated luciferase expression, HEK; for fold induction at 50 µM / Fold increase in riboswitch 15D10-regulated luciferase expression, HEK: Table 2, 50 μM
Protocol: Transfection: 3.5×10^4 human embryonic kidney (HEK) 293 cells were plated in a 96-well flat bottom plate the day before transfection. Plasmid DNA (500 ng) was added to a tube or a 96-well U-bottom plate. […] Then, 50 μL of this diluted transfection reagent was added to the DNA, mixed, and incubated at RT for 20 min. Finally, 7 μL of this solution was added to a well of cells in the 96-well plate. Four hours after transfection, medium containing transfection solution was replaced by medium containing either TPP, fursultiamine, prosultiamine, bisbentiamine, beclotiamine hydrochloride, or sulbutiamine as aptamer inducers.
Firefly luciferase assay of cultured cells: Twenty-four hours after media change, plates were removed from the incubator, and equilibrated to RT for several minutes on a lab bench, then aspirated. Glo-lysis buffer (Promega, 100 μL, RT) was added, and the plates allowed to remain at RT for at least 5 minutes. Then, the well contents were mixed by 50 μL trituration, and 20 μL of each sample was mixed with 20 μL of bright-glo reagent (Promega) that had been diluted to 10% in glo-lysis buffer. 96 wells were spaced on an opaque white 384-well plate. Following a 5 min incubation at RT, luminescence was measured using a Tecan machine with 500 ms read time. The luciferase activity was expressed as mean arbitrary light units (ALU)±S.D., and fold induction was calculated as the quotient of the luciferase activity obtained from cells with TPP or analog treatment divided by the luciferase activity obtained from cells without TPP or analog treatment.

SMILES | effect on luciferase expression from Luci-15D10 (riboswitch 15D10 [2]) | fold induction at 50 µM (riboswitch 15D10 [1]) | fold induction at 50 µM (riboswitch 15D10 [2]) | other results
C/C(=C(\CCO)SCOC(=O)C(C)C)N(C=O)Cc1cnc(C)nc1N [Compound M16, (Z)-((2-(N-((4-Amino-2-methylpyrimidin-5-yl)methyl)formamido)-5-hydroxypent-2-en-3-yl)thio)methyl isobutyrate] | increased | – | – | relative potency in inducing luciferase expression (riboswitch 15D10 [1]): more potent than fursultiamine
C/C(=C(\CCO)SC(C)OC(=O)C(C)(C)C)N(C=O)Cc1cnc(C)nc1N (centres unmarked) [Compound M18, (Z)-1-((2-(N-((4-Amino-2-methylpyrimidin-5-yl)methyl)formamido)-5-hydroxypent-2-en-3-yl)thio)ethyl pivalate] | increased | – | – | –
C/C(=C(\CCO)SC(=O)c1ccccc1)N(C=O)Cc1cnc(C)nc1N [Compound M26, (Z)—S-(2-(N-((4-Amino-2-methylpyrimidin-5-yl)methyl)formamido)-5-hydroxypent-2-en-3-yl) benzothioate] | increased luciferase expression | – | – | –
C/C(=C(\CCO)SC(=O)C(C)C)N(C=O)Cc1cnc(C)nc1N [Compound M27, (Z)—S-(2-(N-((4-Amino-2-methylpyrimidin-5-yl)methyl)formamido)-5-hydroxypent-2-en-3-yl) 2-methylpropanethioate] | increased luciferase expression | – | – | –
C/C(=C(\CCO)SC(=O)C(C)(C)C)N(C=O)Cc1cnc(C)nc1N [Compound M28, (Z)—S-(2-(N-((4-Amino-2-methylpyrimidin-5-yl)methyl)formamido)-5-hydroxypent-2-en-3-yl) 2,2-dimethylpropanethioate] | increased luciferase expression | – | – | –
COc1ccc(C(=O)S/C(CCO)=C(/C)N(C=O)Cc2cnc(C)nc2N)cc1 [Compound M29, (Z)—S-(2-(N-((4-Amino-2-methylpyrimidin-5-yl)methyl)formamido)-5-hydroxypent-2-en-3-yl) 4-methoxybenzothioate] | increased luciferase expression | – | – | –
C/C(=C(\CCO)SC(=O)c1c(Cl)cccc1Cl)N(C=O)Cc1cnc(C)nc1N [Compound M30, (Z)—S-(2-(N-((4-Amino-2-methylpyrimidin-5-yl)methyl)formamido)-5-hydroxypent-2-en-3-yl) 2,6-dichlorobenzothioate] | no effect on luciferase expression | – | – | –
C/C(=C(\CCOP(=O)(O)O)SC(=O)C(C)(C)C)N(C=O)Cc1cnc(C)nc1N [Compound M31, (Z)—S-(2-(N-((4-Amino-2-methylpyrimidin-5-yl)methyl)formamido)-5-(phosphonooxy)pent-2-en-3-yl) 2,2-dimethylpropanethioate] | no effect on luciferase expression | – | – | –
C/C(=C(\CCOP(=O)(O)O)SC(=O)c1c(Cl)cccc1Cl)N(C=O)Cc1cnc(C)nc1N [Compound M33, (Z)—S-(2-(N-((4-Amino-2-methylpyrimidin-5-yl)methyl)formamido)-5-(phosphonooxy)pent-2-en-3-yl) 2,6-dichlorobenzothioate] | no effect on luciferase expression | – | – | –
C/C(=C(\CCO)SC(=O)c1cccc2ccccc12)N(C=O)Cc1cnc(C)nc1N [Compound M34, (Z)—S-(2-(N-((4-Amino-2-methylpyrimidin-5-yl)methyl)formamido)-5-hydroxypent-2-en-3-yl) naphthalene-1-carbothioate] | increased luciferase expression | 291 | 164 | relative potency in inducing luciferase expression (riboswitch 15D10 [1]): most potent inducer; relative potency in inducing luciferase expression (riboswitch 15D10 [2]; compared with fursultiamine or within Formula V/VI groups): most potent compound
C/C(=C(\CCO)SC(=O)c1ccc(C)c2ccccc12)N(C=O)Cc1cnc(C)nc1N [Compound M37, (Z)—S-(2-(N-((4-amino-2-methylpyrimidin-5-yl)methyl)formamido)-5-hydroxypent-2-en-3-yl) 4-methylnaphthalene-1-carbothioate] | – | 134 | 76.2 | –
CCOc1ccc2ccccc2c1C(=O)S/C(CCO)=C(/C)N(C=O)Cc1cnc(C)nc1N [Compound M38, (Z)—S-(2-(N-((4-amino-2-methylpyrimidin-5-yl)methyl)formamido)-5-hydroxypent-2-en-3-yl) 2-ethoxynaphthalene-1-carbothioate] | – | 1 | 1.2 | –
C/C(=C(\CCO)SC(=O)c1ccc(Br)c2ccccc12)N(C=O)Cc1cnc(C)nc1N [Compound M39, (Z)—S-(2-(N-((4-amino-2-methylpyrimidin-5-yl)methyl)formamido)-5-hydroxypent-2-en-3-yl) 4-bromonaphthalene-1-carbothioate] | – | 127 | 103 | –
C/C(=C(\CCO)SC(=O)c1cc2ccccc2c2ccccc12)N(C=O)Cc1cnc(C)nc1N [Compound M40, (Z)—S-(2-(N-((4-amino-2-methylpyrimidin-5-yl)methyl)formamido)-5-hydroxypent-2-en-3-yl) phenanthrene-9-carbothioate] | – | – | – | Fold increase in riboswitch 15D10-regulated luciferase expression, AML (riboswitch 15D10 [1]): 206.0 fold; Fold increase in riboswitch 15D10-regulated luciferase expression, HEK (riboswitch 15D10 [2]): 83.1 fold
C/C(=C(\CCO)SC(=O)c1cc2ccccc2c2ccccc12)N(C=O)Cc1cnc(C)nc1N [Compound M43, (Z)—S-(2-(N-((4-amino-2-methylpyrimidin-5-yl)methyl)formamido)-5-hydroxypent-2-en-3-yl) phenanthrene-9-carbothioate] | – | – | – | Fold increase in riboswitch 15D10-regulated luciferase expression, AML (riboswitch 15D10 [1]): 95.3 fold; Fold increase in riboswitch 15D10-regulated luciferase expression, HEK (riboswitch 15D10 [2]): 10.2 fold
C/C(=C(\CCO)SC(=O)c1ccc(F)c2ccccc12)N(C=O)Cc1cnc(C)nc1N [Compound M44, (Z)—S-(2-(N-((4-amino-2-methylpyrimidin-5-yl)methyl)formamido)-5-hydroxypent-2-en-3-yl) 4-fluoronaphthalene-1-carbothioate] | – | 314 | 177 | –
C/C(=C(\CCO)SC(=O)c1cccc2cccc(F)c12)N(C=O)Cc1cnc(C)nc1N [Compound M45, (Z)—S-(2-(N-((4-amino-2-methylpyrimidin-5-yl)methyl)formamido)-5-hydroxypent-2-en-3-yl) 8-fluoronaphthalene-1-carbothioate] | – | 2.9 | 1.3 | –
C/C(=C(\CCO)SC(=O)c1cccc2cccc(C)c12)N(C=O)Cc1cnc(C)nc1N [Compound M46, (Z)—S-(2-(N-((4-amino-2-methylpyrimidin-5-yl)methyl)formamido)-5-hydroxypent-2-en-3-yl) 8-methylnaphthalene-1-carbothioate] | – | 6 | 1.3 | –
COc1ccc(C(=O)S/C(CCO)=C(/C)N(C=O)Cc2cnc(C)nc2N)c2ccccc12 [Compound M47, (Z)—S-(2-(N-((4-amino-2-methylpyrimidin-5-yl)methyl)formamido)-5-hydroxypent-2-en-3-yl) 4-methoxynaphthalene-1-carbothioate] | – | 85.1 | 25.3 | –
C/C(=C(\CCO)SC(=O)c1ccc2ccccc2c1)N(C=O)Cc1cnc(C)nc1N [Compound M49, (Z)—S-(2-(N-((4-amino-2-methylpyrimidin-5-yl)methyl)formamido)-5-hydroxypent-2-en-3-yl) naphthalene-2-carbothioate] | – | 202 | 414 | –
